From the CheMixHub viscosity set

Experiment: xn = mol fraction of the nth substance listed

O=CC(Cl)(Cl)Cl + CCO
viscosity [mPa·s], 101 kPa
Settings	313.15 K	318.15 K	323.15 K
x1 = 0.1	1.126	1.031	0.939
x1 = 0.15	1.406	1.271	1.141
x1 = 0.2	1.753	1.569	1.397
x1 = 0.25	2.2	1.951	1.702
x1 = 0.3	2.783	2.383	2.074
x1 = 0.4	4.053	3.366	2.848
x1 = 0.425	4.352	3.58	3
x1 = 0.45	4.632	3.769	3.141
x1 = 0.475	4.757	3.854	3.201
x1 = 0.49	4.703	3.788	3.143
x1 = 0.5	4.565	3.673	3.064
x1 = 0.55	3.937	3.201	2.706
x1 = 0.6	3.311	2.737	2.392
x1 = 0.7	2.258	1.989	1.757
x1 = 0.75	1.976	1.724	1.53
x1 = 0.8	1.755	1.542	1.38
x1 = 0.9	1.351	1.219	1.12

ClC(Cl)Cl + CCOC(C)=O
303.15 K, 101.3 kPa
Settings	viscosity [mPa·s]
x2 = 0.1062	0.5361
x2 = 0.2031	0.5455
x2 = 0.305	0.5471
x2 = 0.4094	0.5381
x2 = 0.5069	0.5255
x2 = 0.6112	0.5028
x2 = 0.808	0.4504
x2 = 0.9027	0.4254

CC(=O)OCc1ccccc1 + CCc1ccccc1
viscosity [mPa·s], 101 kPa
Settings	x1 = 0.0913	x1 = 0.176	x1 = 0.2732	x1 = 0.3687	x1 = 0.467	x1 = 0.5592	x1 = 0.6706	x1 = 0.7597	x1 = 0.8652	x1 = 0.9304
303.15 K	0.643	0.692	0.755	0.825	0.912	1.006	1.133	1.265	1.428	1.526
313.15 K	0.577	0.616	0.663	0.717	0.784	0.845	0.943	1.033	1.156	1.233

CC[n+]1ccn(C)c1.COS(=O)(=O)[O-] + CN1CCCC1=O
101 kPa
Settings	viscosity [mPa·s]
298.15 K, x1 = 0.243	9.19
298.15 K, x1 = 0.9139	68.9
298.15 K, x1 = 0.9581	76.81
303.15 K, x1 = 0.243	7.33
303.15 K, x1 = 0.282	8.88
308.15 K, x1 = 0.282	6.76
308.15 K, x1 = 0.3482	9.45
313.15 K, x1 = 0.3482	8.19
